Reference: patent US20220323406A1, “METHODS AND COMPOSITIONS FOR DIFFERENTIATING STEM CELLS” (Massachusetts Institute of Technology, priority 2019, published 2022)

Experiments:
[1] = test system: ENR+CD organoids (ISC to Paneth cell differentiation); test: Primary screen: CCh-stimulated lysozyme secretion LYZ.S, 2.5-D 384-well ENR+CD organoid differentiation; type: cell-based, mouse; conditions: primary screen
Source text: (§1) High-throughput screening.

[2] = test system: ENR+CD organoids; test: Primary screen: ATP (CellTiter-Glo 3D, CTG) cell number/viability, 2.5-D 384-well ENR+CD organoids; conditions: primary screen; for Z.CTG: standard z score;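 on all read-outs here: compounds given at plating and again on day 3 over a 6-day differentiation from ENR+CV stem-cell-enriched precursors, ATP measured on day 6, plate median as control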
[3] = test system: ENR+CD organoids (ISC to Paneth cell differentiation); test: Primary screen: basal (non-stimulated) lysozyme secretion LYZ.NS, 2.5-D 384-well ENR+CD organoid differentiation; type: cell-based, mouse; conditions: primary screen; for Z.LYZ.NS: standard z score
Source text: as §1

Compound | Dose.FC.LYZ.S ([1]; dose 0.08 uM) | Dose.FC.LYZ.S ([1]; dose 0.40 uM) | Dose.FC.LYZ.S ([1]; dose 2.00 uM) | Dose.FC.LYZ.S ([1]; dose 10.00 uM) | Dose.FC.CTG ([2]; dose 0.08 uM) | Dose.FC.CTG ([2]; dose 0.40 uM) | Dose.FC.CTG ([2]; dose 2.00 uM) | Dose.FC.CTG ([2]; dose 10.00 uM) | Dose.FC.LYZ.NS ([3]; dose 0.08 uM) | Dose.FC.LYZ.NS ([3]; dose 0.40 uM) | Dose.FC.LYZ.NS ([3]; dose 2.00 uM) | Dose.FC.LYZ.NS ([3]; dose 10.00 uM) | Z.LYZ.NS ([3]; dose 0.08 uM) | Z.LYZ.NS ([3]; dose 0.40 uM) | Z.LYZ.NS ([3]; dose 2.00 uM) | Z.LYZ.NS ([3]; dose 10.00 uM) | Z.CTG ([2]; dose 0.08 uM) | Z.CTG ([2]; dose 0.40 uM) | Z.CTG ([2]; dose 2.00 uM) | Z.CTG ([2]; dose 10.00 uM)
CCOc1ccccc1-n1c(C(C)N2CCN(C(=O)COc3ccc(Cl)cc3)CC2)nc2ccccc2c1=O (stereo not drawn) [Erastin] | 0.170 log2 fold change | 0.160 log2 fold change | 0.106 log2 fold change | 0.039 log2 fold change | 0.225 log2 fold change | 0.285 log2 fold change | 0.380 log2 fold change | 0.298 log2 fold change | 0.157 log2 fold change | 0.158 log2 fold change | 0.157 log2 fold change | −0.015 log2 fold change | 1.368 | 1.375 | 1.367 | −0.133 |  |  |  | 
COc1ccc2nc([S@@+]([O-])Cc3ncc(C)c(OC)c3C)[nH]c2c1 [Esomeprazole Sodium] | 0.146 log2 fold change | 0.174 log2 fold change | 0.043 log2 fold change | 0.021 log2 fold change | 0.288 log2 fold change | 0.199 log2 fold change | 0.386 log2 fold change | 0.271 log2 fold change | 0.086 log2 fold change | 0.233 log2 fold change | 0.034 log2 fold change | −0.016 log2 fold change | 0.747 | 2.030 | 0.300 | −0.139 |  |  |  | 
CCc1cccc2c3c([nH]c12)C(CC)(CC(=O)O)OCC3 (stereo not drawn) [Etodolac] | 0.034 log2 fold change | 0.127 log2 fold change | 0.070 log2 fold change | −0.011 log2 fold change | −0.061 log2 fold change | 0.049 log2 fold change | 0.008 log2 fold change | 0.023 log2 fold change | 0.046 log2 fold change | 0.036 log2 fold change | 0.052 log2 fold change | −0.009 log2 fold change | 0.400 | 0.314 | 0.452 | −0.078 |  |  |  | 
CCOC(=O)c1cncn1[C@H](C)c1ccccc1 [Etomidate] | 0.053 log2 fold change | 0.048 log2 fold change | 0.054 log2 fold change | −0.008 log2 fold change | 0.084 log2 fold change | 0.006 log2 fold change | 0.163 log2 fold change | 0.039 log2 fold change | −0.008 log2 fold change | 0.037 log2 fold change | 0.015 log2 fold change | −0.001 log2 fold change | −0.065 | 0.318 | 0.131 | −0.010 |  |  |  | 
CO[C@H]1C[C@@H]2CC[C@@H](C)[C@@](O)(O2)C(=O)C(=O)N2CCCC[C@H]2C(=O)O[C@H]([C@H](C)C[C@@H]2CC[C@@H](OCCO)[C@H](OC)C2)CC(=O)[C@H](C)/C=C(\C)[C@@H](O)[C@@H](OC)C(=O)[C@H](C)C[C@H](C)/C=C/C=C/C=C/1C [Everolimus (RAD001)] | −0.012 log2 fold change | −0.007 log2 fold change | −0.039 log2 fold change | −0.096 log2 fold change | 0.392 log2 fold change | 0.127 log2 fold change | 0.132 log2 fold change | −0.111 log2 fold change | 0.068 log2 fold change | 0.110 log2 fold change | −0.003 log2 fold change | −0.024 log2 fold change | 0.590 | 0.956 | −0.030 | −0.210 | 0.936 | 0.304 | 0.314 | −0.266
Cc1nc(C(=O)NCC(=O)O)c(O)c2ccc(Oc3ccccc3)cc12 [FG-4592] | 0.083 log2 fold change | 0.234 log2 fold change | 0.152 log2 fold change | 0.071 log2 fold change | 0.327 log2 fold change | 0.284 log2 fold change | 0.290 log2 fold change | 0.238 log2 fold change | 0.077 log2 fold change | 0.170 log2 fold change | 0.094 log2 fold change | 0.030 log2 fold change | 0.673 | 1.484 | 0.822 | 0.265 |  |  |  | 
CC1=C(C(=O)OC2CCCCC2)C(c2ccc([N+](=O)[O-])cc2)C2=C(CC(C)(C)CC2=O)N1 (stereo not drawn) [FLI-06] | 0.079 log2 fold change | 0.010 log2 fold change | −0.077 log2 fold change | −0.170 log2 fold change | 0.089 log2 fold change | 0.095 log2 fold change | 0.076 log2 fold change | −0.343 log2 fold change | 0.050 log2 fold change | −0.026 log2 fold change | −0.054 log2 fold change | −0.140 log2 fold change | 0.439 | −0.230 | −0.466 | −1.216 | 0.213 | 0.226 | 0.182 | −0.819
CCOC(=O)C1=C(C)NC(C)=C(C(=O)OC)C1c1cccc(Cl)c1Cl (stereo not drawn) [Felodipine] | 0.008 log2 fold change | −0.042 log2 fold change | −0.003 log2 fold change | −0.067 log2 fold change | −0.078 log2 fold change | −0.319 log2 fold change | 0.011 log2 fold change | 0.032 log2 fold change | 0.001 log2 fold change | −0.033 log2 fold change | 0.002 log2 fold change | −0.056 log2 fold change | 0.010 | −0.284 | 0.017 | −0.487 |  |  |  | 
CCOC(=O)c1ccc(NC2CCCCC2)c(N)c1 [Ferrostatin-1 (Fer-1)] | 0.120 log2 fold change | 0.207 log2 fold change | 0.092 log2 fold change | −0.018 log2 fold change | 0.312 log2 fold change | 0.453 log2 fold change | 0.215 log2 fold change | −0.046 log2 fold change | 0.108 log2 fold change | 0.116 log2 fold change | 0.070 log2 fold change | 0.013 log2 fold change | 0.944 | 1.012 | 0.610 | 0.116 | 0.745 | 1.082 | 0.514 | −0.109
CCCCCCCCc1ccc(CCC(N)(CO)CO)cc1.Cl [Fingolimod (FTY720) HCl] | −0.046 log2 fold change | 0.077 log2 fold change | −0.060 log2 fold change | −0.362 log2 fold change | −0.080 log2 fold change | 0.103 log2 fold change | −0.468 log2 fold change | −1.304 log2 fold change | −0.054 log2 fold change | 0.071 log2 fold change | 0.021 log2 fold change | −0.225 log2 fold change | −0.471 | 0.616 | 0.186 | −1.961 | −0.191 | 0.245 | −1.119 | −3.116
CC(C)n1c(/C=C/C(O)CC(O)CC(=O)O)c(-c2ccc(F)cc2)c2ccccc21 (stereo not drawn) [Fluvastatin Sodium] | 0.026 log2 fold change | −0.177 log2 fold change | −0.293 log2 fold change | −0.267 log2 fold change | −0.161 log2 fold change | −0.482 log2 fold change | −1.111 log2 fold change | −1.761 log2 fold change | 0.112 log2 fold change | −0.146 log2 fold change | −0.203 log2 fold change | −0.159 log2 fold change | 0.979 | −1.275 | −1.764 | −1.388 |  |  |  | 
